Measurements from PubChem BioAssay AID330 (DTP/NCI, 2004).
Where “and” joins values, the source holds several entries; their conditions need not be identical. Equal values may be shown once. Toxic doses and inconclusive results are not listed. How the source made its calls: active means survival T/C of 150% or more; inactive means T/C below 125% in these data.

Tested on: P388 leukemia ip, CD2F1 mice, survival T/C
Assay: NCI In Vivo Anticancer Drug Screen. Data for tumor model P388 Leukemia (intraperitoneal) in CD2F1 (CDF1) mice
Conditions: endpoint: median survival time, higher = longer survival
How it was run: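 Mice carrying the transplanted tumor received test compound or vehicle. Survival was recorded in each group, and the value is the treated-group measurement divided by that of the vehicle-treated control group.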

[1] = dose: 400.0 mg/kg/injection, schedule: Q01DX009 (ip), vehicle: saline with Tween-80
[2] = dose: 50.0 mg/kg/injection, schedule: Q01DX009 (ip), vehicle: saline
[3] = dose: 100.0 mg/kg/injection, schedule: Q01DX009 (ip), vehicle: saline
[4] = dose: 200.0 mg/kg/injection, schedule: Q01DX009 (ip), vehicle: saline
[5] = dose: 12.5 mg/kg/injection, schedule: Q01DX005 (ip), vehicle: Klucel (hydroxypropylcellulose) (HPC)
[6] = dose: 25.0 mg/kg/injection, schedule: Q01DX005 (ip), vehicle: Klucel (hydroxypropylcellulose) (HPC)
[7] = dose: 100.0 mg/kg/injection, schedule: Q01DX009 (ip), vehicle: saline with Tween-80
[8] = dose: 200.0 mg/kg/injection, schedule: Q01DX009 (ip), vehicle: saline with Tween-80
[9] = dose: 50.0 mg/kg/injection, schedule: Q01DX005 (ip), vehicle: Klucel (hydroxypropylcellulose) (HPC)
[10] = dose: 100.0 mg/kg/injection, schedule: Q01DX005 (ip), vehicle: Klucel (hydroxypropylcellulose) (HPC)
[11] = dose: 60.0 mg/kg/injection, schedule: Q01DX005 (ip), vehicle: Klucel (hydroxypropylcellulose) (HPC)
[12] = dose: 120.0 mg/kg/injection, schedule: Q01DX005 (ip), vehicle: Klucel (hydroxypropylcellulose) (HPC)
[13] = dose: 12.5 mg/kg/injection, schedule: Q01DX009 (ip), vehicle: water
[14] = dose: 25.0 mg/kg/injection, schedule: Q01DX009 (ip), vehicle: water
[15] = dose: 50.0 mg/kg/injection, schedule: Q01DX009 (ip), vehicle: water
[16] = dose: 100.0 mg/kg/injection, schedule: Q01DX009 (ip), vehicle: water
[17] = dose: 25.0 mg/kg/injection, schedule: Q04DX003 (ip), vehicle: Klucel (hydroxypropylcellulose) (HPC)
[18] = dose: 50.0 mg/kg/injection, schedule: Q04DX003 (ip), vehicle: Klucel (hydroxypropylcellulose) (HPC)
[19] = dose: 100.0 mg/kg/injection, schedule: Q04DX003 (ip), vehicle: Klucel (hydroxypropylcellulose) (HPC)
[20] = dose: 200.0 mg/kg/injection, schedule: Q01DX005 (ip), vehicle: Klucel (hydroxypropylcellulose) (HPC)
[21] = dose: 60.0 mg/kg/injection, schedule: Q01DX005 (ip), vehicle: saline with Tween-80
[22] = dose: 120.0 mg/kg/injection, schedule: Q01DX005 (ip), vehicle: saline with Tween-80
[23] = dose: 50.0 mg/kg/injection, schedule: Q01DX009 (ip), vehicle: saline with Tween-80
[24] = dose: 50.0 mg/kg/injection, schedule: Q01DX009 (ip), vehicle: Klucel (hydroxypropylcellulose) (HPC)
[25] = dose: 100.0 mg/kg/injection, schedule: Q01DX009 (ip), vehicle: Klucel (hydroxypropylcellulose) (HPC)
[26] = dose: 200.0 mg/kg/injection, schedule: Q01DX009 (ip), vehicle: Klucel (hydroxypropylcellulose) (HPC)

Measured: T/C

C/C(=C\COc1ccc2ccc(=O)oc2c1)C1=CC(=O)C(C)(C)O1
inactive: dose: 266.0 mg/kg/injection, schedule: Q01DX009 (ip), vehicle: saline with Tween-80 115 % of control | [1] 114 % of control | dose: 600.0 mg/kg/injection, schedule: Q01DX009 (ip), vehicle: saline with Tween-80 123 % of control

O=C1C=C(Nc2ccccc2N=C2C(N3C4=CCc5ccccc5C4=Nc4ccccc43)=CC(=O)c3ccccc32)C(=O)c2ccccc21
inactive: [2] 89 % of control | [3] 91 % of control | [4] 100 % of control

Nc1cc2c3c(cccc3c1O)CC2
inactive: dose: 6.25 mg/kg/injection, schedule: Q01DX005 (ip), vehicle: Klucel (hydroxypropylcellulose) (HPC) 99 % of control | [5] 102 % of control | [6] 102 % of control

O=c1[nH]cc(I)cc1I
inactive: [7] 95 % of control | [8] 95 % of control | [1] 90 % of control

C=CC1(O)CCCCC1
inactive: [2] 97 % of control | [3] 100 % of control | [4] 107 % of control

CC/C(=N/NS(=O)(=O)c1ccc(C)cc1)c1ccc([N+](=O)[O-])cc1
inactive: dose: 100.0 mg/kg/injection, schedule: Q04DX002 (ip), vehicle: saline 100 % of control | dose: 200.0 mg/kg/injection, schedule: Q04DX002 (ip), vehicle: saline 105 % of control | dose: 400.0 mg/kg/injection, schedule: Q04DX002 (ip), vehicle: saline 100 % of control

CCS(=O)(=O)c1ccc(N2C(N)=NC(N)=NC2(C)C)cc1
inactive: dose: 6.25 mg/kg/injection, schedule: Q01DX005 (ip), vehicle: saline with Tween-80 103 % of control | dose: 12.5 mg/kg/injection, schedule: Q01DX005 (ip), vehicle: saline with Tween-80 100 % of control | dose: 25.0 mg/kg/injection, schedule: Q01DX005 (ip), vehicle: saline with Tween-80 103 % of control

CC(C)C1=C(O)C2=C(C(=O)C1=O)C1(C)CCCC(C)(C)C1C(O)C2OC=O (configuration not stated)
inactive: [5] 93 % of control | [6] 109 % of control | [9] 107 % of control | [10] 111 % of control

O=C1OI(O)c2ccccc21
inactive: [11] 106 % of control | [12] 106 % of control

ClCCc1cnc[nH]1
inactive: dose: 6.25 mg/kg/injection, schedule: Q01DX009 (ip), vehicle: water 101 % of control | [13] 101 % of control | [14] 108 % of control | [15] 110 % of control | [16] 95 % of control

O=C1NC(=O)c2ncccc21
inactive: dose: 100.0 mg/kg/injection, schedule: Q04DX003 (ip), vehicle: saline with Tween-80 100 % of control | dose: 200.0 mg/kg/injection, schedule: Q04DX003 (ip), vehicle: saline with Tween-80 100 % of control | dose: 400.0 mg/kg/injection, schedule: Q04DX003 (ip), vehicle: saline with Tween-80 100 % of control

CNC(=O)NNc1ccccc1
inactive: [17] 100 % of control | [18] 102 % of control | [19] 97 % of control | dose: 200.0 mg/kg/injection, schedule: Q04DX003 (ip), vehicle: Klucel (hydroxypropylcellulose) (HPC) 102 % of control | dose: 400.0 mg/kg/injection, schedule: Q04DX003 (ip), vehicle: Klucel (hydroxypropylcellulose) (HPC) 103 % of control

Cc1nn(CCO)c(C)c1N=[N+]([O-])c1c(C)nn(CCO)c1C
inactive: dose: 10.0 mg/kg/injection, schedule: Q01DX009 (ip), vehicle: suspension in saline 114 % of control | dose: 20.0 mg/kg/injection, schedule: Q01DX009 (ip), vehicle: suspension in saline 120 % of control | [17] 111 % of control and 116 % of control | dose: 30.0 mg/kg/injection, schedule: Q01DX009 (ip), vehicle: suspension in saline 116 % of control | [18] 115 % of control and 122 % of control | dose: 60.0 mg/kg/injection, schedule: Q01DX009 (ip), vehicle: suspension in saline 120 % of control | [19] 114 % of control and 96 % of control

O=C1NC(CN2CCCC(O)C2)C(=O)NC1CN1CCCC(O)C1 (configuration not stated)
inactive: [13] 110 % of control and 95 % of control | [14] 96 % of control and 90 % of control | [15] 96 % of control and 110 % of control | [16] 122 % of control and 114 % of control | dose: 200.0 mg/kg/injection, schedule: Q01DX009 (ip), vehicle: water 116 % of control

CCOC(=O)C1(CC)CC(OCC)OC1=O (configuration not stated)
inactive: [9] 100 % of control | [10] 93 % of control | [20] 97 % of control

c1ccc(CCc2ccnc3c2ccc2ccccc23)cc1
inactive: [17] 112 % of control | [18] 99 % of control | [19] 99 % of control

Cc1cc2c(cc1C)[n+](=O)c1c(n2[O-])CCC1
inactive: [21] 100 % of control | [22] 95 % of control

O=[N+]([O-])CC(c1ccccc1)C(c1ccccc1)[N+](=O)[O-] (configuration not stated)
inactive: dose: 50.0 mg/kg/injection, schedule: Q01DX005 (ip), vehicle: saline with Tween-80 90 % of control | dose: 100.0 mg/kg/injection, schedule: Q01DX005 (ip), vehicle: saline with Tween-80 93 % of control | dose: 200.0 mg/kg/injection, schedule: Q01DX005 (ip), vehicle: saline with Tween-80 112 % of control

O=[N+]([O-])c1ccccc1S(=O)NCc1c(Cl)cccc1Cl (configuration not stated)
inactive: [21] 100 % of control | [22] 90 % of control | dose: 240.0 mg/kg/injection, schedule: Q01DX005 (ip), vehicle: saline with Tween-80 100 % of control

Cc1ccc(-c2cssc2=S)cc1
inactive: dose: 25.0 mg/kg/injection, schedule: Q01DX009 (ip), vehicle: saline with Tween-80 96 % of control | [23] 95 % of control | [7] 92 % of control | [8] 90 % of control

COc1cc(CC2NCCc3cc(O)c(O)cc32)cc(OC)c1OC (configuration not stated)
inactive: dose: 25.0 mg/kg/injection, schedule: Q01DX009 (ip), vehicle: Klucel (hydroxypropylcellulose) (HPC) 103 % of control | [24] 100 % of control and 113 % of control | [25] 106 % of control and 111 % of control | [26] 108 % of control

Oc1ccccc1/C=N/C(/N=C/c1ccccc1O)c1ccccc1O
inactive: [23] 100 % of control | [7] 101 % of control | [8] 100 % of control

CC(C)CC(=O)CC(=O)C(C)(C)C.CC(C)CC(=O)CC(=O)C(C)(C)C.CC(C)CC(=O)CC(=O)C(C)(C)C.CC(C)CC(=O)CC(=O)C(C)(C)C.[Ce]
inactive: dose: 50.0 mg/kg/injection, schedule: Q01DX009 (ip), vehicle: distilled water + alcohol 106 % of control | dose: 100.0 mg/kg/injection, schedule: Q01DX009 (ip), vehicle: distilled water + alcohol 103 % of control | dose: 200.0 mg/kg/injection, schedule: Q01DX009 (ip), vehicle: distilled water + alcohol 106 % of control

CCC(=C(c1ccc(OCCN(C)C)cc1)c1cccc(O)c1)c1ccccc1 (mixture of isomers)
inactive: [11] 104 % of control | [12] 107 % of control

O=c1[nH]c2ccccc2[nH]1
inactive: [24] 114 % of control and 98 % of control | dose: 50.0 mg/kg/injection, schedule: Q01DX009 (ip), vehicle: suspension in saline 99 % of control and 90 % of control | [25] 107 % of control and 98 % of control | dose: 100.0 mg/kg/injection, schedule: Q01DX009 (ip), vehicle: suspension in saline 100 % of control | [26] 117 % of control | dose: 200.0 mg/kg/injection, schedule: Q01DX009 (ip), vehicle: suspension in saline 101 % of control and 96 % of control | dose: 400.0 mg/kg/injection, schedule: Q01DX009 (ip), vehicle: suspension in saline 101 % of control and 88 % of control

COC(=O)C(CCCCNC(=O)OCc1ccccc1)NC(=O)C(Cc1ccccc1)NC(=O)OC(C)(C)C (configuration not stated)
inactive: [9] 99 % of control | [10] 97 % of control | [20] 99 % of control
